Source: the NIST ThermoML archive (doi:10.1021/je400055v)

Assay: xn = mol fraction of the nth substance listed
Conditions: Liquid, Vibrating tube method

CCCCCCCCCCC [undecane] + CCCCCCC
Conditions	mass density [kg/m3]
313.12 K, 2001 kPa, x2 = 0.5063	703.7
313.12 K, 3000 kPa, x2 = 0.5063	704.6
313.12 K, 4000 kPa, x2 = 0.5063	705.6
313.12 K, 5000 kPa, x2 = 0.5063	706.5
313.12 K, 6000 kPa, x2 = 0.5063	707.4
313.12 K, 7000 kPa, x2 = 0.5063	708.2
313.12 K, 8001 kPa, x2 = 0.5063	709.1
313.12 K, 9000 kPa, x2 = 0.5063	709.9
313.12 K, 10000 kPa, x2 = 0.5063	710.8
313.12 K, 11000 kPa, x2 = 0.5063	711.6
313.12 K, 12000 kPa, x2 = 0.5063	712.4
313.12 K, 13000 kPa, x2 = 0.5063	713.2
313.12 K, 14000 kPa, x2 = 0.5063	714
313.12 K, 15000 kPa, x2 = 0.5063	714.8
313.12 K, 16000 kPa, x2 = 0.5063	715.6
313.12 K, 17001 kPa, x2 = 0.5063	716.3
313.12 K, 18000 kPa, x2 = 0.5063	717.1
313.12 K, 19000 kPa, x2 = 0.5063	717.8
313.12 K, 20000 kPa, x2 = 0.5063	718.5
313.12 K, 21001 kPa, x2 = 0.5063	719.2
313.12 K, 22050 kPa, x2 = 0.5063	720
313.12 K, 23000 kPa, x2 = 0.5063	720.6
313.12 K, 24000 kPa, x2 = 0.5063	721.3
313.12 K, 25000 kPa, x2 = 0.5063	722
313.14 K, 1001 kPa, x2 = 0.9511	671.7
313.14 K, 2000 kPa, x2 = 0.9511	672.8
313.14 K, 3000 kPa, x2 = 0.9511	673.9
313.14 K, 4000 kPa, x2 = 0.9511	674.9
313.14 K, 5000 kPa, x2 = 0.9511	676
313.14 K, 6000 kPa, x2 = 0.9511	677
313.14 K, 7000 kPa, x2 = 0.9511	678
313.14 K, 8000 kPa, x2 = 0.9511	679
313.14 K, 9000 kPa, x2 = 0.9511	680
313.14 K, 10000 kPa, x2 = 0.9511	680.9
313.14 K, 11000 kPa, x2 = 0.9511	681.8
313.14 K, 12000 kPa, x2 = 0.9511	682.7
313.14 K, 13000 kPa, x2 = 0.9511	683.6
313.14 K, 14001 kPa, x2 = 0.9511	684.5
313.14 K, 15001 kPa, x2 = 0.9511	685.4
313.14 K, 16000 kPa, x2 = 0.9511	686.3
313.14 K, 17001 kPa, x2 = 0.9511	687.1
313.14 K, 18001 kPa, x2 = 0.9511	687.9
313.14 K, 19000 kPa, x2 = 0.9511	688.7
313.14 K, 20000 kPa, x2 = 0.9511	689.5
313.14 K, 21001 kPa, x2 = 0.9511	690.3
313.14 K, 22000 kPa, x2 = 0.9511	691.1
313.14 K, 23001 kPa, x2 = 0.9511	691.9
313.14 K, 24000 kPa, x2 = 0.9511	692.6
313.14 K, 25000 kPa, x2 = 0.9511	693.3
313.15 K, 1000 kPa, x2 = 0.7482	687.4
313.15 K, 1001 kPa, x2 = 0.05	724.3
313.15 K, 2000 kPa, x2 = 0.7482	688.4
313.15 K, 2001 kPa, x2 = 0.05	725.1
313.15 K, 3000 kPa, x2 = 0.05	726
313.15 K, 3000 kPa, x2 = 0.7482	689.4
313.15 K, 4000 kPa, x2 = 0.05	726.8
313.15 K, 4000 kPa, x2 = 0.7482	690.4
313.15 K, 5000 kPa, x2 = 0.05	727.6
313.15 K, 5000 kPa, x2 = 0.7482	691.3
313.15 K, 6000 kPa, x2 = 0.05	728.4
313.15 K, 6000 kPa, x2 = 0.7482	692.3
313.15 K, 7000 kPa, x2 = 0.05	729.2
313.15 K, 7000 kPa, x2 = 0.7482	693.2
313.15 K, 8000 kPa, x2 = 0.7482	694.1
313.15 K, 8001 kPa, x2 = 0.05	730
313.15 K, 9000 kPa, x2 = 0.05	730.8
313.15 K, 9000 kPa, x2 = 0.7482	695
313.15 K, 10000 kPa, x2 = 0.05	731.6
313.15 K, 10000 kPa, x2 = 0.7482	695.9
313.15 K, 11000 kPa, x2 = 0.05	732.3
313.15 K, 11000 kPa, x2 = 0.7482	696.8
313.15 K, 12000 kPa, x2 = 0.05	733.1
313.15 K, 12000 kPa, x2 = 0.7482	697.6
313.15 K, 13000 kPa, x2 = 0.05	733.8
313.15 K, 13000 kPa, x2 = 0.7482	698.5
313.15 K, 14000 kPa, x2 = 0.05	734.5
313.15 K, 14000 kPa, x2 = 0.7482	699.3
313.15 K, 15000 kPa, x2 = 0.05	735.2
313.15 K, 15000 kPa, x2 = 0.7482	700.1
313.15 K, 16000 kPa, x2 = 0.05	735.9
313.15 K, 16000 kPa, x2 = 0.7482	700.9
313.15 K, 17000 kPa, x2 = 0.05	736.6
313.15 K, 17000 kPa, x2 = 0.7482	701.7
313.15 K, 18000 kPa, x2 = 0.05	737.3
313.15 K, 18000 kPa, x2 = 0.7482	702.5
313.15 K, 19000 kPa, x2 = 0.05	738
313.15 K, 19000 kPa, x2 = 0.7482	703.3
313.15 K, 20000 kPa, x2 = 0.05	738.7
313.15 K, 20000 kPa, x2 = 0.7482	704
313.15 K, 21000 kPa, x2 = 0.05	739.3
313.15 K, 21000 kPa, x2 = 0.7482	704.8
313.15 K, 22000 kPa, x2 = 0.7482	705.5
313.15 K, 22001 kPa, x2 = 0.05	740
313.15 K, 23000 kPa, x2 = 0.05	740.6
313.15 K, 23000 kPa, x2 = 0.7482	706.2
313.15 K, 24000 kPa, x2 = 0.05	741.3
313.15 K, 24000 kPa, x2 = 0.7482	707
313.15 K, 25000 kPa, x2 = 0.05	741.9
313.15 K, 25000 kPa, x2 = 0.7482	707.7
313.16 K, 1000 kPa, x2 = 0.2346	716.5
313.16 K, 2001 kPa, x2 = 0.2346	717.4
313.16 K, 3000 kPa, x2 = 0.2346	718.3
313.16 K, 4001 kPa, x2 = 0.2346	719.2
313.16 K, 5000 kPa, x2 = 0.2346	720
313.16 K, 6000 kPa, x2 = 0.2346	720.8
313.16 K, 7000 kPa, x2 = 0.2346	721.7
313.16 K, 8000 kPa, x2 = 0.2346	722.5
313.16 K, 9000 kPa, x2 = 0.2346	723.3
313.16 K, 10000 kPa, x2 = 0.2346	724.1
313.16 K, 11001 kPa, x2 = 0.2346	724.8
313.16 K, 12000 kPa, x2 = 0.2346	725.6
313.16 K, 13000 kPa, x2 = 0.2346	726.4
313.16 K, 14000 kPa, x2 = 0.2346	727.1
313.16 K, 15000 kPa, x2 = 0.2346	727.8
313.16 K, 16000 kPa, x2 = 0.2346	728.6
313.16 K, 17000 kPa, x2 = 0.2346	729.3
313.16 K, 18000 kPa, x2 = 0.2346	730
313.16 K, 19000 kPa, x2 = 0.2346	730.7
313.16 K, 20000 kPa, x2 = 0.2346	731.4
313.16 K, 21000 kPa, x2 = 0.2346	732.1
313.16 K, 22000 kPa, x2 = 0.2346	732.7
313.16 K, 23000 kPa, x2 = 0.2346	733.4
313.16 K, 24000 kPa, x2 = 0.2346	734
313.16 K, 25000 kPa, x2 = 0.2346	734.7
323.09 K, 1001 kPa, x2 = 0.9511	663.1
323.09 K, 2000 kPa, x2 = 0.9511	664.3
323.09 K, 3000 kPa, x2 = 0.9511	665.4
323.09 K, 4000 kPa, x2 = 0.9511	666.6
323.09 K, 5000 kPa, x2 = 0.9511	667.7
323.09 K, 6000 kPa, x2 = 0.9511	668.8
323.09 K, 7000 kPa, x2 = 0.9511	669.9
323.09 K, 8000 kPa, x2 = 0.9511	670.9
323.09 K, 9000 kPa, x2 = 0.9511	672
323.09 K, 10000 kPa, x2 = 0.9511	673
323.09 K, 11000 kPa, x2 = 0.9511	674
323.09 K, 12000 kPa, x2 = 0.9511	675
323.09 K, 13000 kPa, x2 = 0.9511	675.9
323.09 K, 14001 kPa, x2 = 0.9511	676.9
323.09 K, 15001 kPa, x2 = 0.9511	677.8
323.09 K, 16000 kPa, x2 = 0.9511	678.7
323.09 K, 17001 kPa, x2 = 0.9511	679.6
323.09 K, 18001 kPa, x2 = 0.9511	680.5
323.09 K, 19000 kPa, x2 = 0.9511	681.4
323.09 K, 20000 kPa, x2 = 0.9511	682.3
323.09 K, 21001 kPa, x2 = 0.9511	683.1
323.09 K, 22000 kPa, x2 = 0.9511	683.9
323.09 K, 23001 kPa, x2 = 0.9511	684.8
323.09 K, 24000 kPa, x2 = 0.9511	685.6
323.09 K, 25000 kPa, x2 = 0.9511	686.3
323.11 K, 2001 kPa, x2 = 0.5063	695.8
323.11 K, 3000 kPa, x2 = 0.5063	696.8
323.11 K, 4000 kPa, x2 = 0.5063	697.8
323.11 K, 5000 kPa, x2 = 0.5063	698.8
323.11 K, 6000 kPa, x2 = 0.5063	699.7
323.11 K, 7000 kPa, x2 = 0.5063	700.7
323.11 K, 8001 kPa, x2 = 0.5063	701.6
323.11 K, 9000 kPa, x2 = 0.5063	702.5
323.11 K, 10000 kPa, x2 = 0.5063	703.4
323.11 K, 11000 kPa, x2 = 0.5063	704.3
323.11 K, 12000 kPa, x2 = 0.5063	705.1
323.11 K, 13000 kPa, x2 = 0.5063	706
323.11 K, 14000 kPa, x2 = 0.5063	706.8
323.11 K, 15000 kPa, x2 = 0.5063	707.6
323.11 K, 16000 kPa, x2 = 0.5063	708.5
323.11 K, 17001 kPa, x2 = 0.5063	709.3
323.11 K, 18000 kPa, x2 = 0.5063	710.1
323.11 K, 19000 kPa, x2 = 0.5063	710.8
323.11 K, 20000 kPa, x2 = 0.5063	711.6
323.11 K, 21001 kPa, x2 = 0.5063	712.4
323.11 K, 22050 kPa, x2 = 0.5063	713.1
323.11 K, 23000 kPa, x2 = 0.5063	713.9
323.11 K, 24000 kPa, x2 = 0.5063	714.6
323.11 K, 25000 kPa, x2 = 0.5063	715.3
323.12 K, 1000 kPa, x2 = 0.7482	679.1
323.12 K, 1001 kPa, x2 = 0.05	716.7
323.12 K, 2000 kPa, x2 = 0.7482	680.2
323.12 K, 2001 kPa, x2 = 0.05	717.6
323.12 K, 3000 kPa, x2 = 0.05	718.5
323.12 K, 3000 kPa, x2 = 0.7482	681.3
323.12 K, 4000 kPa, x2 = 0.05	719.4
323.12 K, 4000 kPa, x2 = 0.7482	682.3
323.12 K, 5000 kPa, x2 = 0.05	720.3
323.12 K, 5000 kPa, x2 = 0.7482	683.4
323.12 K, 6000 kPa, x2 = 0.05	721.1
323.12 K, 6000 kPa, x2 = 0.7482	684.4
323.12 K, 7000 kPa, x2 = 0.05	722
